In patent publication US11021481B2, “Substituted isoindolin-1-ones and 2,3-dihydro-1h-pyrrolo[3,4-c]pyridin-1-ones as HPK1 antagonists” (Nimbus Saturn, Inc., priority 2019, dated 2021):
pIC50: −log10 of the molar value.

These compounds were tested against HPK1 (Homo sapiens (Human), UniProt Q92918) (assay: HPK1 biochemical enzyme assay (microfluidic mobility shift assay)). Details: 1.5 nM HPK1, ATP 1 mM final, 30 min preincubation, 60 min at RT, Caliper EZ Reader; read-out: HPK1 1000UMATP caliper IC50.
Method in brief: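 Mobility shift readout of HPK1 activity after a 60 min RT reaction with 1 mM ATP, 1 μM substrate and 5 mM MgCl2. Enzyme/substrate mix was first exposed to compounds for 30 min, using ten-point curves topping at 3 μM final.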

HPK1, sequence (Q92918 whole entry): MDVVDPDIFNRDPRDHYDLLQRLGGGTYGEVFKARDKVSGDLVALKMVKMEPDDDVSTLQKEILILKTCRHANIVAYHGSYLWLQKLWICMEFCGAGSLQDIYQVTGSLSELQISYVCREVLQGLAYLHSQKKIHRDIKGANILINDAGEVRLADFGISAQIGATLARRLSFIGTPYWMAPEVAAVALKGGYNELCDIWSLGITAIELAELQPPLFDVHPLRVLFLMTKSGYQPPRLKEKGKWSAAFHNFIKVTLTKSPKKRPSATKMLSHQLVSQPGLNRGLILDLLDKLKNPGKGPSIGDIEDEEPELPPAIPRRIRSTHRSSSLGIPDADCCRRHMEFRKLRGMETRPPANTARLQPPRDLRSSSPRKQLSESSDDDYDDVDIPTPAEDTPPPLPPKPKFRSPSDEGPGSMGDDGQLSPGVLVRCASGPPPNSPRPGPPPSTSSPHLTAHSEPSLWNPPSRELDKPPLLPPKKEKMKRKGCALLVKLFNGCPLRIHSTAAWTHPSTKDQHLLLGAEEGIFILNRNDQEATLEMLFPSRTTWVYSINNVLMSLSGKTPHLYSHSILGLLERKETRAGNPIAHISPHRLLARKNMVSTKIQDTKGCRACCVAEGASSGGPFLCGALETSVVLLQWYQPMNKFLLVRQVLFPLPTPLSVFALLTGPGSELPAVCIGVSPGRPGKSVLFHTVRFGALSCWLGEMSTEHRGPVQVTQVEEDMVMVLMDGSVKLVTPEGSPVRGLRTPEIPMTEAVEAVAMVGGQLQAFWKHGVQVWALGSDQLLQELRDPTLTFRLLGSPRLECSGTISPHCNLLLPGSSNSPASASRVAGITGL

| Compound | pIC50 |
| --- | --- |
| O=C1NCc2c(-c3cnc4cc(F)ccn34)ccc(Nc3ccc(N4CCC(CN5CCOCC5)CC4)cn3)c21 [I-428, 4-(7-fluoroimidazo [1,2-a]pyridin-3-yl)-7-((5-(4-(morpholinomethyl)piperidin-1-yl)pyridin-2-yl)amino)isoin-dolin-1-one] | > 7.00 |
| CN1CCN(c2ccc(Nc3ccc(-c4ccnc5ccn(C)c45)c4c3C(=O)NC4)nc2)CC1 [I-66, 7-[[5-(4-methylpiperazin-1-yl)-2-pyridyl]amino]-4-(1-methylpyrrolo [3,2-b]pyridin-7-yl)isoindolin-1-one] | 6.00 to 7.00 |
| CC1(C)CNCCN1Cc1ccc(Nc2ccc(-c3cnc4c(F)c(C(F)F)ccn34)c3c2C(=O)NC3)nc1 [I-655, 4-(7-(difluoromethvl)-8-fluoroimidazo [1,2-a]pyridin-3-yl)-7-((5-((2,2-dimethylpiperazin-1-yl)methyl)pyridin-2-yl)amino)isoin-dolin-1-one] | > 7.00 |
| COCC1CN(c2ccc(Nc3ccc(-c4cnc5cnccn45)c4c3C(=O)NC4)nc2)CCO1 (stereo in doubt) [I-333, (S)-4-(imidazo[1,2-a]pyrazin-3-yl)-7-((5-(2-(methoxymeth-yl)morpholino)-pyridin-2-yl)amino)isoin-dolin-1-one] | > 7.00 |
| CN1CCN(c2ccc(Nc3ccc(-c4c[nH]c5ncccc45)c4c3C(=O)NC4)nc2)CC1 [I-21, 7-[[5-(4-methylpiperazin-1-yl)-2-pyridyl]amino]-4-(1H-pyrrolo[2,3-b]pyridin-3-yl)-isoindolin-1-one] | > 7.00 |
| O=C1NCc2c(-c3cnc4cc(F)ccn34)ccc(Nc3cnn(C4CCOCC4)c3)c21 [I-379, 4-(7-fluoroimidazo [1,2-a]pyridin-3-yl)-7-((1-(tetrahydro-2H-pyran-4-yl)-1H-pyrazol-4-yl)amino)isoin-dolin-1-one] | 6.00 to 7.00 |
| O=C1NCc2c(-c3cnc4cc(F)ccn34)ccc(Nc3ccc(N4CCC(O)(CN5CCOCC5)CC4)cn3)c21 [I-348, 4-(7-fluoroimidazo [1,2-a]pyridin-3-yl)-7-((5-(4-hydroxy-4-(morpholino-methyl)piperidin-1-yl)pyridin-2-yl)amino)isoin-dolin-1-one] | > 7.00 |
| CN1CCC[C@H](c2cccc(Nc3cnc(-c4ccnc5c4ccn5C)c4c3C(=O)NC4)n2)C1 [I-419, (S)-4-(1-methyl-1H-pyrrolo[2,3-b]pyridin-4-yl)-7-((6-(1-methylpiperidin-3-yl)pyridin-2-yl)amino)-2.3-dihydro-1H-pyrrolo[3,4-c]pyridin-1-one] | < 6.00 |
| Cn1ccc2c(-c3ncc(Nc4cccc(N5CCCNCC5)n4)c4c3CNC4=O)ccnc21 [I-240, 7-[[6-(1,4-diazepan-1-yl)-2-pyridyl]amino]-4-(1-methylpyrrolo [2,3-b]pyridin-4-yl)-2,3-dihydropyrrolo [3,4-c]pyridin-1-one] | 6.00 to 7.00 |
| 4-(6- methylpyrazol o[1,5-a]pyridin-3- yl)-7-[[5- (morpholino- methyl)-2- pyridyl]amino] isoindolin-1-one [I-469] | > 7.00 |
| O=C1NCc2c(-c3cnn4ccccc34)ncc(Nc3ccc(N4CCC(O)CC4)cn3)c21 [I-464, 7-[[5-(4-hydroxy-1-piperidyl)-2-pyridyl]amino] 4-pyrazolo[1,5-a]pyridin-3-yl-2,3-dihydropyrrolo [3,4-c]pyridin-l-one] | > 7.00 |
| O=C1NCc2c(-c3cnc4cnccn34)ccc(Nc3ccc(N4[C@@H]5CC[C@H]4C[C@H](O)C5)cn3)c21 [I-320, 7-((5-((1R,3s,5S)-3-hydroxy-8-azabicyclo [3,2.1]octan-8-yl)pyridin-2-yl)amino)-4-(imidazo[1,2-a]pyrazin-3-yl)isoindolin-1-one] | > 7.00 |
| CN(C)[C@H]1COCCN(c2ccc(Nc3ccc(-c4cnc5cc(F)ccn45)c4c3C(=O)NC4)nc2)C1 [I-519, (R)-7-((5-(6-(dimethylami-no)-1,4-oxazepan-4-yl)pyridin-2-yl)amino)-4-(7-fluoroimidazo [1,2-a]pyridin-3-yl)isoindolin-1-one] | > 7.00 |
| O=C1NCc2c(-c3cnc4cc(CN5CC(F)C5)ccn34)ccc(Nc3ccc(N4CCC(O)CC4)cn3)c21 [I-378, 4-(7-((3-fluoroazetidin-1-yl)methyl)imidazo[1,2-a]pyridin-3-yl)-7-((5-(4-hydroxy-piperidin-1-yl)pyridin-2-yl)amino)isoin-dolin-1-one] | 6.00 to 7.00 |
| C[C@@H]1CCn2c(-c3ccc(Nc4ccc(N5CCC(O)CC5)cn4)c4c3CNC4=O)cnc2C1 (single isomer, unassigned) [I-302] | 6.00 to 7.00 |
| CNC1CCN(c2ccc(Nc3cnc(-c4ccnc5c4ccn5C)c4c3C(=O)NC4)nc2)CC1(F)F (stereo not drawn) [I-453, 7-[[5-[3,3-difluoro-4-(methylamino)-1-piperidyl]-2-pyridyl]amino]-4-(1-methylpyrrolo [2,3-b]pyridin-4-yl)-2,3-dihydropyrrolo [3,4-c]pyridin-1-one] | > 7.00 |
| Cn1ccc2c(-c3ncc(Nc4ccc(N5CCC[C@H](C(C)(C)O)C5)cn4)c4c3CNC4=O)ccnc21 [I-211, 7-[[5-[(3S)-3-(1-hydroxy-1-methyl-ethyl)-1-piperidyl]-2-pyridyl]-amino]-4-(1-methylpyrrolo [2,3-b]pyridin-4-yl)-2,3-dihydropyrrolo [3,4-c]pyridin-1-one] | > 7.00 |
| O=C1NCc2c(-c3cnc4cc(F)ccn34)ccc(Nc3ccc(N4CCO[C@H](CNC5CC5)C4)cn3)c21 [I-477, 7-[[5-[(2R)-2-[(cyclopropylamino)methyl]morpholin-4-yl]-2-pyridyl]amino]-4-(7-fluoroimidazo [1,2-a]pyridin-3-yl)isoindolin-1-one] | > 7.00 |

Next, values leading:

| pIC50 | Compound |
| --- | --- |
| > 7.00 | CN(C)Cc1nc(Nc2cnc(-c3ccnc4c3ccn4C)c3c2C(=O)NC3)ccc1N1CCC(O)CC1 [I-776, 7-((6-((dimethylamino)-methyl)-5-(4-hydroxypiperidin-1-yl)pyridin-2-yl)amino)-4-(1-methyl-1H-pyrrolo[2,3-b]pyridin-4-yl)-2,3-dihydro-1H-pyrrolo[3,4-c]pyridin-1-one] |
| > 7.00 | CN(C)Cc1nc(Nc2ccc(-c3cnc4cnccn34)c3c2C(=O)NC3)ccc1C1CCOCC1 [I-850, 7-[[6-[(dimethylami-no)methyl]-5-tetrahydropyran-4-yl-2-pyridyl]amino]-4-imidazo[1,2-a]pyrazin-3-yl-isoindolin-1-one] |
| > 7.00 | CC(C)(c1ccc(Nc2ccc(-c3cnc4cc(F)ccn34)c3c2C(=O)NC3)nc1)N1CCOCC1 [I-747, 4-(7-fluoroimidazo [1,2-a]pyridin-3-yl)-7-((5-(2-morpholino-propan-2-yl)pyridin-2-yl)amino)isoin-dolin-1-one] |
| > 7.00 | COc1cc(Nc2cnc(-c3ccnc4c3ccn4C)c3c2C(=O)NC3)nc(N2CC[C@H]3CNC[C@H]32)c1 [I-681, 7-((6-((3aS, 6aS)-hexahydropyrrolo[3,4-b]pyrrol-1(2H)-yl)-4-methoxypyridin-2-yl)amino)-4-(1-methyl-1H-pyrrolo[2,3-b]pyridin-4-yl)-2,3-dihydro-1H-pyrrolo[3,4-c]pyridin-1-one] |
| > 7.00 | COCC1(O)CCN(c2ccc(Nc3ccc(-c4cnc5cc(F)ccn45)c4c3C(=O)NC4)nc2CN(C)C)CC1 [I-782, 7-((6-((dimethylamino)-methyl)-5-(4-hydroxy-4-(methoxymeth-yl)piperidin-1-yl)pyridin-2-yl)amino)-4-(7-fluoroimidazo [1,2-a]pyridin-3-yl)isoindolin-1-one] |
| > 7.00 | Cn1ccc2c(-c3ncc(Nc4ccc([C@H]5CCOC5)c(CN5CC[C@H](O)C5)n4)c4c3CNC4=O)ccnc21 [I-812, 7-((6-(((S)-3-hydroxypyrroli-din-1-yl)methyl)-5-((R)-THF-3-yl)pyridin-2-yl)amino)-4-(1-methyl-1H-pyrrolo[2,3-b]pyridin-4-yl)-2,3-dihydro-1H-pyrrolo[3,4-c]pyridin-1-one] |
| > 7.00 | O=C1NCc2c(-c3cnc4c(F)cccn34)ncc(Nc3ccc(C4(O)CCOCC4)cn3)c21 [I-683, 4-(8-fluoroimidazo [1,2-a]pyridin-3-yl)-7-((5-(4-hydroxytetra-hydro-2H-pyran-4-yl)pyridin-2-yl)amino)-2,3-dihydro-1H-pyrrolo[3,4-c)pyridin-1-one] |
| > 7.00 | O=C1NCc2c(-c3cnc4cc(F)ccn34)ccc(Nc3ccc([C@H]4CCOC4)c(CN4CCC(F)(F)C4)n3)c21 [I-717, (R)-7-((6-((3,3-difluoropyrro-lidin-1-yl)methyl)-5-(tetrahydrofuran-3-yl)pyridin-2-yl)amino)-4-(7-fluoroimidazo [1,2-a]pyridin-3-yl)isoindolin-1-one] |
| > 7.00 | CN(C)Cc1nc(Nc2cnc(-c3ccnc4c3ccn4C)c3c2C(=O)NC3)ccc1[C@H]1CCOC1 [I-708, (R)-7-((6-((dimethylamino)methyl)-5-(tetrahydrofuran-3-yl)pyridin-2-yl)amino)-4-(1-methyl-1H-pyrrolo[2,3-b]pyridin-4-yl)-2,3-dihydro-1H-pyrrolo[3,4-c]pyridin-1-one] |
| > 7.00 | CN(C)Cc1nc(Nc2cnc(-c3ccnc4c3ccn4C)c3c2C(=O)NC3)ccc1N1CCO[C@@H](C(C)(C)O)C1 [I-769, (R)-7-((6-((dimethylamino)-methyl)-5-(2-(2-hydroxypropan-2-yl)morpholino)pyridin-2-yl)amino)-4-(1-methyl-1H-pyrrolo[2,3-b]pyridin-4-yl)-2,3-dihydro-1H-pyrrolo[3,4-c]pyridin-1-one] |
| > 7.00 | O=C1NCc2c(-c3cnc4cc(F)ccn34)ccc(Nc3ccc([C@H]4CCOC4)c(CN4CC[C@@H](O)C4)n3)c21 [I-783, 4-(7-f1uoroimidazo [1,2-a]pyridin-3-yl)-7-((6-(((R)-3-hydroxypyrrol-idin-1-yl)methyl)-5-((R)-tetrahydrofuran-3-yl)pyridin-2-yl)amino)isoin-dolin-1-one] |
| > 7.00 | CN1CCCC1C1(O)CCN(c2ccc(Nc3ccc(-c4cnc5cc(F)ccn45)c4c3C(=O)NC4)nc2)CC1 (stereo not drawn) [I-677, 4-(7-fluoroimidazo [1,2-a]pyridin-3-yl)-7-((5-(4-hydroxy-4-(1-methylpyrrol-idin-2-yl)piperidin-1-yl)pyridin-2-yl)amino)isoin-dolin-1-one] |
